Results on four molecules are retold here after patent US5869524A, “Indene inhibitors of COX-2” (American Home Products Corporation, priority 1997, dated 1999).

Series [1] concerns the target T1, rhCOX-2 (Homo sapiens, UniProt P35354).
T1 construct: made in house; host or cells: Sf9 or CHO cells (microsomal preparation)
T1 sequence (P35354 18-604): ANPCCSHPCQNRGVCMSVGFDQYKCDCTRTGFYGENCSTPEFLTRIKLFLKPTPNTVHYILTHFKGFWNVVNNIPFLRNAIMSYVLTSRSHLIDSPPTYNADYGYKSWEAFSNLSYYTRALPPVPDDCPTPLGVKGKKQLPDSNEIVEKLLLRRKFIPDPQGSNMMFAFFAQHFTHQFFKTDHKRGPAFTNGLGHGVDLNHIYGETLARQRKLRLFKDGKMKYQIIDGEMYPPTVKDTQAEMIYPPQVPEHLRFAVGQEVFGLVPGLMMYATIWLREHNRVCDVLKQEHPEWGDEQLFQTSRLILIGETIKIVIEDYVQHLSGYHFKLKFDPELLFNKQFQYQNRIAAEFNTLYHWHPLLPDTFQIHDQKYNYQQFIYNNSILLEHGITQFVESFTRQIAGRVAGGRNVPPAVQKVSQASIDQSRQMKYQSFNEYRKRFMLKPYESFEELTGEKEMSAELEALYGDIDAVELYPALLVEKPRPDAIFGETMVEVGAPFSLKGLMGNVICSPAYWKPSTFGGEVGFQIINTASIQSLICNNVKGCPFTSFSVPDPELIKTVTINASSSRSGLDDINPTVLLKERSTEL
Description: Inhibition of rhCOX-2 (PGF2α by EIA, microsomal human recombinant enzyme). In kind it is biochemical. The settings on record: value in parentheses = IC50; 30 min preincubation, 30 μM arachidonic acid, 37° C., pH 7.8; read-out: % inh of rhCOX-2 (IC50). As to the method: A representative compound of this invention was evaluated for inhibition of COX-2 and COX-1 enzymes as follows. Human COX-1 and COX-2 cDNAs were cloned from human monocytes, untreated and LPS-treated respectively, by RT-PCR using oligonucleotide primers based on published hCOX-1 and hCOX-2 sequences (Jones et al., J. Biol. Chem., 268, 9049 (1993)). The cDNAs were then transfected into either Sf9 or CHO cells and subsequently converted into a microsomal preparation as described by Glaser et al (Eur. J. Pharmacol. 281, 107-111 (1995)). The microsomal human recombinant enzymes were diluted with buffer (100 mM Tris, pH 7.8 at 37° C.) containing 0.5 mM phenol (964 μl total volume). The enzyme preparations were preincubated with vehicle (DMSO) or compounds in DMSO (1% DMSO in final assay) for 30 min at 37° C. Excess hematin was added 1 min prior to initiation of reaction ([…] final hematin) with 30 μM arachidonic acid (sodium salt). […]
The reaction was incubated for 35 sec (maximum level of PGH2 accumulation as determined from time course studies), and terminated by addition of […] of SnCl2 (1 mg/ml) in 0.1N HCl. PGH2 is quantitatively converted to PGF2a by this reaction (50% efficiency of total conversion). […] Combined ethyl acetate extracts were dried under N2 (g) and redissolved in EIA buffer (2.0 ml), and PGF2α was quantified by EIA.

In series [2] the test system is COX-2. The settings on record: cited from earlier work; for inhibition of COX-1 and COX-2, selectivity in words: literature.
In series [3] the test system is Alzheimer's disease. The settings on record: Rogers et al. 1993; cited from earlier work.
For series [4] the following is noted: Futaki et al. 1993; cited from earlier work.

Turning to `CSc1ccc(/C=C2/C(C)=C(CC(=O)C3=C(O)COC3=O)c3cc(F)ccc32)cc1` [Example 1, (Z)-3-[[5-Fluoro-2-methyl-1-[[4-(methylthio)phenyl]methylene]-1H-inden-3-yl]acetyl]-4-hydroxy-2(5H)-furanone], the IC50 in series [1] stood at 27 nM.

Regarding `COc1ccc2c(c1)c(CC(=O)O)c(C)n2C(=O)c1ccc(Cl)cc1` [Indomethacin], the “inhibition of COX-1 and COX-2, selectivity in words” value in series [2] was “relatively non-selective inhibitor of COX-1 and COX-2”. Besides, in series [3], the “treatment of Alzheimer's disease” value was “useful in the treatment of Alzheimer's disease”.

As to `CS(=O)(=O)Nc1ccc([N+](=O)[O-])cc1OC1CCCCC1` [N-(2-cyclohexyloxy-4-nitrophenyl)methanesulfonamide], in series [2], the “inhibition of COX-1 and COX-2, selectivity in words” value is on record as “selective COX-2 inhibitor”. In series [4], the antiinflammatory effect entry is reported as “effective antiinflammatory” and the gastric side effects result was “lacks gastric side effects”.

As to `CCc1cccc2c3c([nH]c12)C(CC)(CC(=O)O)OCC3` (stereo not shown) [etodolac], in series [2] (fold, reported by Glaser et al. 1995), the “selectivity for inhibition of COX-2” value is “tenfold”.
